Assay results from paper PMC7601397, “Discovery of Sulforaphane as a Potent BACE1 Inhibitor Based on Kinetics and Computational Studies” (Nutrients, 2020).

Target: BACE1 (Homo sapiens, UniProt P56817)
Test: FRET enzyme assay (kit); Dixon and Lineweaver-Burk kinetics
Format: biochemical

Sequence of BACE1 (P56817 46-457): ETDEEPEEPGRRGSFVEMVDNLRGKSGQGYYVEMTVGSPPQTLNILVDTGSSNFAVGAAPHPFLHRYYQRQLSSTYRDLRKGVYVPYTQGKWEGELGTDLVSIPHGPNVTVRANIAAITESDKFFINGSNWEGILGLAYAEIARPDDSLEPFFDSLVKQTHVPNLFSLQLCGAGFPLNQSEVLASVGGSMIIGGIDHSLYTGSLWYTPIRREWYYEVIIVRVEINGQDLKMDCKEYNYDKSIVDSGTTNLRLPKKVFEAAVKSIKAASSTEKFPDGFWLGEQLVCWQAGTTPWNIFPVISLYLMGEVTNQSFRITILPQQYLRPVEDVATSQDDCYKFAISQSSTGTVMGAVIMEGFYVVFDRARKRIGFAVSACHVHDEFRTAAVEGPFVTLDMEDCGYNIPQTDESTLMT

Q: How did the Ki turn out when C[S+]([O-])CCCCN=C=S (stereo not shown) [Sulforaphane] was run?
A: The Ki was 3.1 µM.
